From the supplement of paper PMC9013687

What was measured:
Danio rerio embryo [1] = test system: Danio rerio embryo
Protocol: (§1)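 Zebrafish embryos (UFZ-OBI strain) were exposed from 2 hpf for 48 h (2 dpf) or 96 h (4 dpf) at 28 °C; spontaneous tail coiling was scored at 25 hpf. Morphological features from automated image analysis (FishInspector), heart rate and locomotor response were fitted with drc models. Quantal endpoints were dichotomised at 2.5 SD from controls and fitted with a log-logistic model; heart rate, pigmentation and STC were normalised to the replicate control mean. Betamethasone was tested as betamethasone dipropionate, diflorasone as diflorasone diacetate.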

Danio rerio embryo [2] = details: exposure time: 4 dpf
Protocol: as §1

Danio rerio embryo [3] = assay: EC50 Curvature_Increase; details: exposure time: 2 dpf
Protocol: as §1

Danio rerio embryo [4] = assay: EC50 Body length_Decrease
Protocol: as §1

Danio rerio embryo [5] = assay: EC50 Bladder size_Decrease; details: exposure time: 4 dpf
Protocol: as §1

Danio rerio embryo [6] = assay: EC50 Pericard size_Increase
Protocol: as §1

Danio rerio embryo [7] = assay: EC50 Yolk sac size_Increase; details: exposure time: 4 dpf
Protocol: as §1

Danio rerio embryo [8] = assay: EC50 Eye-jaw distance_Decrease; details: exposure time: 4 dpf
Protocol: as §1

Danio rerio embryo [9] = assay: EC50 Otolith-eye distance_Decrease; details: exposure time: 4 dpf
Protocol: as §1

Danio rerio embryo [10] = assay: EC10 LMR dark; higher = less potent; details: exposure time: 4 dpf
Protocol: as §1

Danio rerio embryo [11] = assay: EC20 LMR dark; higher = less potent; details: exposure time: 4 dpf
Protocol: as §1

Danio rerio embryo [12] = assay: EC20 Any effect; higher = less potent
Protocol: as §1

Danio rerio embryo [13] = assay: EC10 Any effect; higher = less potent
Protocol: as §1

Danio rerio embryo [14] = assay: EC10 Curvature_Increase; higher = less potent; details: exposure time: 2 dpf
Protocol: as §1

Danio rerio embryo [15] = assay: EC20 Curvature_Increase; higher = less potent; details: exposure time: 2 dpf
Protocol: as §1

Danio rerio embryo [16] = assay: EC20 Body length_Decrease; higher = less potent
Protocol: as §1

Danio rerio embryo [17] = assay: EC10 Body length_Decrease; higher = less potent
Protocol: as §1

Danio rerio embryo [18] = assay: EC10 Bladder size_Decrease; higher = less potent; details: exposure time: 4 dpf
Protocol: as §1

Danio rerio embryo [19] = assay: EC20 Bladder size_Decrease; higher = less potent; details: exposure time: 4 dpf
Protocol: as §1

Danio rerio embryo [20] = assay: EC20 Yolk sac size_Increase; higher = less potent; details: exposure time: 4 dpf
Protocol: as §1

Danio rerio embryo [21] = assay: EC20 Pericard size_Increase; higher = less potent
Protocol: as §1

Danio rerio embryo [22] = assay: EC10 Yolk sac size_Increase; higher = less potent; details: exposure time: 4 dpf
Protocol: as §1

Danio rerio embryo [23] = assay: EC10 Pericard size_Increase; higher = less potent
Protocol: as §1

Danio rerio embryo [24] = assay: EC20 Eye-jaw distance_Decrease; higher = less potent; details: exposure time: 4 dpf
Protocol: as §1

Danio rerio embryo [25] = assay: EC10 Eye-jaw distance_Decrease; higher = less potent; details: exposure time: 4 dpf
Protocol: as §1

Danio rerio embryo [26] = assay: EC20 Head trunk angle_Decrease; higher = less potent; details: exposure time: 2 dpf
Protocol: as §1

Danio rerio embryo [27] = assay: EC20 Otolith-eye distance_Decrease; higher = less potent; details: exposure time: 4 dpf
Protocol: as §1

Danio rerio embryo [28] = assay: EC10 Otolith-eye distance_Decrease; higher = less potent; details: exposure time: 4 dpf
Protocol: as §1

Danio rerio embryo [29] = assay: spontaneous tail coiling frequency (coils/min/embryo); higher = more spontaneous movement; details: 25 hpf
Protocol: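 Spontaneous tail coilings of zebrafish embryos exposed from 2 hpf were recorded at 24-25 hpf in 1-min videos and detected by a KNIME workflow from grey-value variance. Betamethasone was tested as the dipropionate, diflorasone as the diacetate.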

CCCCOC(=O)[C@@H](C)Oc1ccc(Oc2ccc(C(F)(F)F)cn2)cc1 [fluazifop-p-butyl]
Details | EC10 Any effect [µM] | EC10 Body length Decrease [µM] | EC10 Pericard size Increase [µM] | EC20 Any effect [µM] | EC20 Body length Decrease [µM] | EC20 Pericard size Increase [µM] | EC50 Any effect [µM] | EC50 Body length Decrease [µM] | EC50 Otolith [µM] | EC50 Pericard size Increase [µM] | spontaneous tail coiling frequency
Danio rerio embryo [1], exposure time: 2 dpf | – | – | – | – | – | – | 3.1 | – | 9.45 | – | –
Danio rerio embryo [1], exposure time: 4 dpf | – | – | – | – | – | – | 1.54 | – | – | – | –
Danio rerio embryo [4], exposure time: 2 dpf | – | – | – | – | – | – | – | 3.7 | – | – | –
Danio rerio embryo [4], exposure time: 4 dpf | – | – | – | – | – | – | – | 2.67 | – | – | –
Danio rerio embryo [6], exposure time: 2 dpf | – | – | – | – | – | – | – | – | – | 6.56 | –
Danio rerio embryo [6], exposure time: 4 dpf | – | – | – | – | – | – | – | – | – | 2.11 | –
Danio rerio embryo [12], exposure time: 2 dpf | – | – | – | 0.942 | – | – | – | – | – | – | –
Danio rerio embryo [12], exposure time: 4 dpf | – | – | – | 0.624 | – | – | – | – | – | – | –
Danio rerio embryo [13], exposure time: 2 dpf | 0.469 | – | – | – | – | – | – | – | – | – | –
Danio rerio embryo [13], exposure time: 4 dpf | 0.368 | – | – | – | – | – | – | – | – | – | –
Danio rerio embryo [16], exposure time: 2 dpf | – | – | – | – | 1.71 | – | – | – | – | – | –
Danio rerio embryo [16], exposure time: 4 dpf | – | – | – | – | 1.15 | – | – | – | – | – | –
Danio rerio embryo [17], exposure time: 2 dpf | – | 1.09 | – | – | – | – | – | – | – | – | –
Danio rerio embryo [17], exposure time: 4 dpf | – | 0.702 | – | – | – | – | – | – | – | – | –
Danio rerio embryo [21], exposure time: 2 dpf | – | – | – | – | – | 2.94 | – | – | – | – | –
Danio rerio embryo [21], exposure time: 4 dpf | – | – | – | – | – | 0.834 | – | – | – | – | –
Danio rerio embryo [23], exposure time: 2 dpf | – | – | 1.84 | – | – | – | – | – | – | – | –
Danio rerio embryo [23], exposure time: 4 dpf | – | – | 0.485 | – | – | – | – | – | – | – | –
Danio rerio embryo [29], 1.29 µM | – | – | – | – | – | – | – | – | – | – | 1.94
Danio rerio embryo [29], 1.93 µM | – | – | – | – | – | – | – | – | – | – | 1.98
Danio rerio embryo [29], 2.9 µM | – | – | – | – | – | – | – | – | – | – | 2.62
Danio rerio embryo [29], 4.35 µM | – | – | – | – | – | – | – | – | – | – | 1.95
Danio rerio embryo [29], 5.2 µM | – | – | – | – | – | – | – | – | – | – | 0.71
Danio rerio embryo [29], 6.52 µM | – | – | – | – | – | – | – | – | – | – | 1.41
Danio rerio embryo [29], 9.78 µM | – | – | – | – | – | – | – | – | – | – | 1.62

Details | EC10 Bladder size Decrease [µM] | EC10 Curvature Increase [µM] | EC10 Eye-jaw distance Decrease [µM] | EC10 LMR dark [µM] | EC10 Otolith-eye distance Decrease [µM] | EC10 Yolk sac size Increase [µM] | EC20 Bladder size Decrease [µM] | EC20 Curvature Increase [µM] | EC20 Eye-jaw distance Decrease [µM] | EC20 Head trunk angle Decrease [µM] | EC20 LMR dark [µM] | EC20 Otolith-eye distance Decrease [µM] | EC20 Yolk sac size Increase [µM] | EC50 Bladder size Decrease [µM] | EC50 Curvature Increase [µM] | EC50 Eye-jaw distance Decrease [µM] | EC50 LMR dark [µM] | EC50 Otolith-eye distance Decrease [µM] | EC50 Yolk sac size Increase [µM]
Danio rerio embryo [2] | – | – | – | – | – | – | – | – | – | – | – | – | – | – | – | – | 2.38 | – | –
Danio rerio embryo [3] | – | – | – | – | – | – | – | – | – | – | – | – | – | – | 6.37 | – | – | – | –
Danio rerio embryo [5] | – | – | – | – | – | – | – | – | – | – | – | – | – | 1.51 | – | – | – | – | –
Danio rerio embryo [7] | – | – | – | – | – | – | – | – | – | – | – | – | – | – | – | – | – | – | 3.42
Danio rerio embryo [8] | – | – | – | – | – | – | – | – | – | – | – | – | – | – | – | 2.36 | – | – | –
Danio rerio embryo [9] | – | – | – | – | – | – | – | – | – | – | – | – | – | – | – | – | – | 2 | –
Danio rerio embryo [10] | – | – | – | 0.362 | – | – | – | – | – | – | – | – | – | – | – | – | – | – | –
Danio rerio embryo [11] | – | – | – | – | – | – | – | – | – | – | 0.767 | – | – | – | – | – | – | – | –
Danio rerio embryo [14] | – | 2.28 | – | – | – | – | – | – | – | – | – | – | – | – | – | – | – | – | –
Danio rerio embryo [15] | – | – | – | – | – | – | – | 3.34 | – | – | – | – | – | – | – | – | – | – | –
Danio rerio embryo [18] | 0.78 | – | – | – | – | – | – | – | – | – | – | – | – | – | – | – | – | – | –
Danio rerio embryo [19] | – | – | – | – | – | – | 0.994 | – | – | – | – | – | – | – | – | – | – | – | –
Danio rerio embryo [20] | – | – | – | – | – | – | – | – | – | – | – | – | 2.62 | – | – | – | – | – | –
Danio rerio embryo [22] | – | – | – | – | – | 2.23 | – | – | – | – | – | – | – | – | – | – | – | – | –
Danio rerio embryo [24] | – | – | – | – | – | – | – | – | 1.04 | – | – | – | – | – | – | – | – | – | –
Danio rerio embryo [25] | – | – | 0.645 | – | – | – | – | – | – | – | – | – | – | – | – | – | – | – | –
Danio rerio embryo [26] | – | – | – | – | – | – | – | – | – | 3.89 | – | – | – | – | – | – | – | – | –
Danio rerio embryo [27] | – | – | – | – | – | – | – | – | – | – | – | 0.964 | – | – | – | – | – | – | –
Danio rerio embryo [28] | – | – | – | – | 0.629 | – | – | – | – | – | – | – | – | – | – | – | – | – | –
